Columns and labels:
Donor 3 COP T-Cell Lines = assay: ATP proliferation assay (CellTiter Glo), Donor 3 COP T-cell lines, incl. reactivity to non-canonical GA peptides; type: cell-based, human; conditions: for Reactivity (proliferation), Mean: Day 54 of culture
Donor 4 COP T-Cell Lines = assay: ATP proliferation assay (CellTiter Glo), Donor 4 COP T-cell lines, incl. reactivity to non-canonical GA peptides; type: cell-based, human; conditions: for response to GMA in comparison to COP: 205-1F4, 10 μg/mL dose; for Mean, ATP proliferation assay: Cell Line 205-1F4; for Proliferation (luminescent ATP assay), Mean: T-cell line 205-1F4, autologous B-LCL; for Reactivity (proliferation), Mean: T-cell line 205-1H3, 0 μg/mL 4121.0

glatiramer acetate [GMA]
Reactivity (proliferation), Mean (Donor 3 COP T-Cell Lines; T-cell line 165-E3C, 3 μg/mL antigen, No Antigen 2797): 17065 RLU | Mean, ATP proliferation assay (Donor 3 COP T-Cell Lines; T-cell line 165-E3C, 3 μg/mL, Day 46, after 3 days): 35044 RLU | Reactivity (proliferation), Mean (Donor 3 COP T-Cell Lines; T-cell line 165-E3C, 10 μg/mL antigen, No Antigen 2797): 37602 RLU | Mean, ATP proliferation assay (Donor 3 COP T-Cell Lines; T-cell line 165-E3C, 10 μg/mL, Day 46, after 3 days): 68577 RLU | Reactivity (proliferation), Mean (Donor 3 COP T-Cell Lines; T-cell line 165-E3C, 100 μg/mL antigen, No Antigen 2797): 23437 RLU | Mean, ATP proliferation assay (Donor 3 COP T-Cell Lines; T-cell line 165-E3C, Day 32, 10 μg/mL): 3723 RLU | Reactivity (proliferation), Mean (Donor 3 COP T-Cell Lines; T-cell line 165-F3C, 1 μg/mL antigen, No Antigen 3150): 9423 RLU | Proliferation (luminescent ATP assay), Mean (Donor 3 COP T-Cell Lines; T-cell line 165-F3C, 1 μg/mL antigen, Day 77 of culture, 0 μg/mL 1563): 7277 | Mean, ATP proliferation assay (Donor 3 COP T-Cell Lines; T-cell line 165-F3C, 1 μg/mL, Day 46, after 3 days): 45592 RLU | Reactivity (proliferation), Mean (Donor 3 COP T-Cell Lines; T-cell line 165-F3C, 3 μg/mL antigen, No Antigen 3150): 37555 RLU | Proliferation (luminescent ATP assay), Mean (Donor 3 COP T-Cell Lines; T-cell line 165-F3C, 3 μg/mL antigen, Day 77 of culture, 0 μg/mL 1563): 50400 | Mean, ATP proliferation assay (Donor 3 COP T-Cell Lines; T-cell line 165-F3C, 3 μg/mL, Day 46, after 3 days): 101328 RLU | Reactivity (proliferation), Mean (Donor 3 COP T-Cell Lines; T-cell line 165-F3C, 10 μg/mL antigen, No Antigen 3150): 44621 RLU | Proliferation (luminescent ATP assay), Mean (Donor 3 COP T-Cell Lines; T-cell line 165-F3C, 10 μg/mL antigen, Day 77 of culture, 0 μg/mL 1563): 70563 | Mean, ATP proliferation assay (Donor 3 COP T-Cell Lines; T-cell line 165-F3C, 10 μg/mL, Day 46, after 3 days): 84268 RLU | Reactivity (proliferation), Mean (Donor 3 COP T-Cell Lines; T-cell line 165-F3C, 100 μg/mL antigen, No Antigen 3150): 12391 RLU | Mean, ATP proliferation assay (Donor 3 COP T-Cell Lines; T-cell line 165-F3C, Day 32, 10 μg/mL): 1257 RLU | Reactivity (proliferation), Mean (Donor 3 COP T-Cell Lines; T-cell line 165-F6C, 1 μg/mL antigen, No Antigen 2189): 15671 RLU | Mean, ATP proliferation assay (Donor 3 COP T-Cell Lines; T-cell line 165-F6C, 1 μg/mL, Day 46, after 3 days): 18511 RLU | Proliferation (luminescent ATP assay), Mean (Donor 3 COP T-Cell Lines; T-cell line 165-F6C, 1.25 μg/mL antigen, Day 76 of culture, No Antigen value 517): 629 | Proliferation (luminescent ATP assay), Mean (Donor 3 COP T-Cell Lines; T-cell line 165-F6C, 2.5 μg/mL antigen, Day 76 of culture, No Antigen value 517): 3,197 | Reactivity (proliferation), Mean (Donor 3 COP T-Cell Lines; T-cell line 165-F6C, 3 μg/mL antigen, No Antigen 2189): 40274 RLU | Mean, ATP proliferation assay (Donor 3 COP T-Cell Lines; T-cell line 165-F6C, 3 μg/mL, Day 46, after 3 days): 43634 RLU | Proliferation (luminescent ATP assay), Mean (Donor 3 COP T-Cell Lines; T-cell line 165-F6C, 5 μg/mL antigen, Day 76 of culture, No Antigen value 517): 11,867 | Reactivity (proliferation), Mean (Donor 3 COP T-Cell Lines; T-cell line 165-F6C, 10 μg/mL antigen, No Antigen 2189): 38921 RLU | Proliferation (luminescent ATP assay), Mean (Donor 3 COP T-Cell Lines; T-cell line 165-F6C, 10 μg/mL antigen, Day 76 of culture, No Antigen value 517): 20,141 | Mean, ATP proliferation assay (Donor 3 COP T-Cell Lines; T-cell line 165-F6C, 10 μg/mL, Day 46, after 3 days): 34321 RLU | Reactivity (proliferation), Mean (Donor 3 COP T-Cell Lines; T-cell line 165-F6C, 100 μg/mL antigen, No Antigen 2189): 3690 RLU | Mean, ATP proliferation assay (Donor 3 COP T-Cell Lines; T-cell line 165-F6C, Day 32, 10 μg/mL): 1489 RLU | response in proliferation assay (Donor 3 COP T-Cell Lines; all seven Donor 3 COP T-cell lines tested, Day 54): responded well | reactivity in confirmatory ATP proliferation assay (Donor 3 COP T-Cell Lines; six Donor 3 COP lines, Day 32, 10 μg/mL (Table 23)): showed reactivity | response to GMA in comparison to COP (Donor 4 COP T-Cell Lines; Day 50 (Table 27)): 102.7% | response to GMA in comparison to COP (Donor 4 COP T-Cell Lines; Day 58 (Table 28)): 98.5% | response to GMA in comparison to COP (Donor 4 COP T-Cell Lines; Day 71): 101.3% | Mean, ATP proliferation assay (Donor 4 COP T-Cell Lines; Day 50, 1 μg/mL): 17341 | Mean, ATP proliferation assay (Donor 4 COP T-Cell Lines; Day 50, 3 μg/mL): 195335 | Mean, ATP proliferation assay (Donor 4 COP T-Cell Lines; Day 50, 10 μg/mL): 218954 | Mean, ATP proliferation assay (Donor 4 COP T-Cell Lines; Day 58, 3 μg/mL): 29921 | Mean, ATP proliferation assay (Donor 4 COP T-Cell Lines; Day 58, 10 μg/mL): 30998 | Mean, ATP proliferation assay (Donor 4 COP T-Cell Lines; Day 58, 30 μg/mL): 33915 | Mean, ATP proliferation assay (Donor 4 COP T-Cell Lines; Day 58, 100 μg/mL): 32698 | Proliferation (luminescent ATP assay), Mean (Donor 4 COP T-Cell Lines; Day 71, 1 μg/mL antigen): 17341 | Proliferation (luminescent ATP assay), Mean (Donor 4 COP T-Cell Lines; Day 71, 3 μg/mL antigen): 195335 | Proliferation (luminescent ATP assay), Mean (Donor 4 COP T-Cell Lines; Day 71, 10 μg/mL antigen): 218954 | Proliferation (luminescent ATP assay), Mean (Donor 4 COP T-Cell Lines; Day 80, 1 μg/mL antigen): 7,477 | Proliferation (luminescent ATP assay), Mean (Donor 4 COP T-Cell Lines; Day 80, 2 μg/mL antigen): 64,999 | Proliferation (luminescent ATP assay), Mean (Donor 4 COP T-Cell Lines; Day 80, 5 μg/mL antigen): 83,107 | Proliferation (luminescent ATP assay), Mean (Donor 4 COP T-Cell Lines; Day 80, 10 μg/mL antigen): 67,482 | Reactivity (proliferation), Mean (Donor 4 COP T-Cell Lines; 1 μg/mL antigen): 37654.3 | Reactivity (proliferation), Mean (Donor 4 COP T-Cell Lines; 3 μg/mL antigen): 55284.3 | Reactivity (proliferation), Mean (Donor 4 COP T-Cell Lines; 10 μg/mL antigen): 60841.7

Source: patent US9995734B2, “Human T cell line assay for evaluating the immunologic identity of glatiramer acetate preparations” (Mylan Inc., priority 2013, dated 2018)
